Reference: publication PMC10781839 (European Journal of Drug Metabolism and Pharmacokinetics, 2023)
Entries after “also recorded” stand apart in the source; their conditions may differ. Like-named read-outs stand apart in the source and are kept apart here.

What was measured:
CYP3A4 = details: cited from earlier work; for CYP3A4 inhibition in vitro: HCQ metabolites
[1] = cited from earlier work; for Peak serum concentration: pantoprazole 40 mg
recombinant human CYP3A4 = recombinant human CYP3A4 (Homo sapiens, UniProt P08684); assay: P450-Glo CYP3A4 Assay, inhibition by pantoprazole; assay type: in vitro ADME; details: pantoprazole 100 µM, in vitro
CYP3A = details: for Midazolam/1-OH-midazolam AUC2–4 h ratio: pantoprazole group
CYP2D6 [2] = details: cited from earlier work
[3] = cited from earlier work
CYP2D6 [4] = details: cited from earlier work; remark: listed apart in the source
[5] = cited from earlier work; remark: listed apart in the source
CYP2D6 [6] = details: single 400 mg HCQ, short term, yohimbine probe
[7] = all participants, after HCQ intake (± pantoprazole)
[8] = pantoprazole subgroup, HCQ plus pantoprazole
[9] = after 8-day course of 400 mg HCQ twice daily, seven healthy volunteers

recombinant human CYP3A4, sequence (P08684 whole entry): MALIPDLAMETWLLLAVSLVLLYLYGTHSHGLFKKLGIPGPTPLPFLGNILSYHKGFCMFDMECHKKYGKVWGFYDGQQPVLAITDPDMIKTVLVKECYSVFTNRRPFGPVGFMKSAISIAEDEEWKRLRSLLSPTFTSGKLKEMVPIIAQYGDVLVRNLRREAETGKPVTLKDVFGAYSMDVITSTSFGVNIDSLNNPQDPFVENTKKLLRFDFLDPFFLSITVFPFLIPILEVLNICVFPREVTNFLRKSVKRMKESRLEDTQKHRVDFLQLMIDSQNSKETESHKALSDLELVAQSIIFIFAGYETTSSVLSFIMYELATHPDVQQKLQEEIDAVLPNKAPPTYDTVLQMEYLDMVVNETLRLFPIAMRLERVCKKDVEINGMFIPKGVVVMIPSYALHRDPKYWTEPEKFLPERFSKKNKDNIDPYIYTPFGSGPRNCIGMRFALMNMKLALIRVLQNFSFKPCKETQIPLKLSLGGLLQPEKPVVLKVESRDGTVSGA

With `CC(CCCNCCO)Nc1ccnc2cc(Cl)ccc12` (stereo not shown) [desethylhydroxychloroquine] as the compound, how does the “CYP3A4 inhibition in vitro” value (CYP3A4) read?
Its value is “time-dependent inhibitors of CYP3A4”.

Which “Time to peak concentrations after oral administration” value [1] does the source give for `COc1ccnc(C[S+]([O-])c2nc3ccc(OC(F)F)cc3[nH]2)c1OC` (stereo not shown) [pantoprazole] here?
Its value is 2 to 3 h.

What about the Peak serum concentration ([1]; converted from µg/ml) of the same compound?
The Peak serum concentration was 6.5 µM.

And the Peak serum concentration [1]?
The Peak serum concentration was 2.5 µg/mL.

What about the “Inhibition of CYP3A4-mediated midazolam metabolism in vitro” value (CYP3A4) of the same compound?
Its value is “inhibits CYP3A4-mediated midazolam metabolism at relatively high concentrations”.

What about the “Reduction of CYP3A activity” value (recombinant human CYP3A4) of the same compound?
The value was 75%.

And the “Local concentration in the gut” value (CYP3A; 40 mg pantoprazole with approximately 200 ml of fluid, estimate)?
Its value is “exceeded 500 µM”.

Which “CYP3A4 inhibition in vitro” value (CYP3A4) does the source give for `CC(CCCN)Nc1ccnc2cc(Cl)ccc12` (stereo not shown) [didesethylchloroquine] here?
The value was “time-dependent inhibitors of CYP3A4”.

With `CCNCCCC(C)Nc1ccnc2cc(Cl)ccc12` (stereo not shown) [desethylchloroquine] as the compound, how does the “CYP3A4 inhibition in vitro” value (CYP3A4) read?
The value was “time-dependent inhibitors of CYP3A4”.

And the “CYP2D6 inhibition in vitro” value (CYP2D6 [2])?
Its value is “competitively and reversibly inhibit CYP2D6 activity, albeit only mildly”.

With `Cc1ncc2n1-c1ccc(Cl)cc1C(c1ccccc1F)=NC2` [midazolam] as the compound, how does the “Delay of peak plasma concentration vs fasting state” value ([3]; oral standard dose 1 h after a meal) read?
Its value is 0.9 h.

What about the Oral bioavailability ([3]; therapeutic or microdoses) of the same compound?
Its Oral bioavailability is “approximately 25%”.

And the “Increase of midazolam AUC2–4 h vs baseline” value (CYP3A; [7])?
Its value is 25%.

What about the “Change of midazolam AUC2–4 h vs baseline” value (CYP3A; control subgroup, HCQ alone) of the same compound?
Its value is “no change”.

What about the “Midazolam/1-OH-midazolam AUC2–4 h ratio” value (CYP3A; after hydroxychloroquine plus pantoprazole) of the same compound?
The value was 3.60 ± 1.56.

And the “Midazolam/1-OH-midazolam AUC2–4 h ratio” value (CYP3A; baseline)?
The value was 3.03 ± 1.59.

And the “Increase of midazolam AUC2–4 h vs baseline” value (CYP3A; [8])?
The value was 46%.

Which “Increase of metoprolol AUC” value (CYP2D6 [4]; [9]) does the source give for `COCCc1ccc(OCC(O)CNC(C)C)cc1` (stereo not shown) [metoprolol] here?
Its value is 65%.

What about the “Increase of metoprolol Cmax” value (CYP2D6 [4]; [9]) of the same compound?
Its value is 72%.

With `CCN(CCO)CCCC(C)Nc1ccnc2cc(Cl)ccc12` (stereo not shown) [HCQ, hydroxychloroquine] as the compound, how does the “Time until steady state is reached” value [5] read?
The value was 4 months.

And the “CYP2D6 inhibition in healthy volunteers” value (CYP2D6 [4]; interaction with metoprolol and dextromethorphan)?
Its value is “weakly inhibits CYP2D6”.

What about the “Inhibition of CYP2D6 metabolism in vivo” value (CYP2D6 [6]) of the same compound?
The value was “not a clinically relevant CYP2D6 inhibitor; also recorded: did not inhibit”.

What about the “CYP3A4 inhibition in vitro by parent drug” value (CYP3A4) of the same compound?
The value was “did not support the hypothesis that the parent drug HCQ inhibits CYP3A4 activity”.

And the “CYP2D6 inhibition in vitro” value (CYP2D6 [2])?
The value was “competitively and reversibly inhibit CYP2D6 activity, albeit only mildly”.

And the “Inhibition of CYP3A metabolism in vivo” value (CYP3A; single 400 mg HCQ, short term, midazolam probe)?
Its value is “did not inhibit”.

For `OCc1ncc2n1-c1ccc(Cl)cc1C(c1ccccc1F)=NC2` [1-OH-midazolam, 1-hydroxy-midazolam], which “Increase of 1-OH-midazolam AUC2–4 h vs baseline” value (CYP3A; [7]) is on record?
Its value is 17%.

And the “Increase of 1-OH-midazolam AUC2–4 h vs baseline” value (CYP3A; [8])?
The value was 17.5%.

For `COc1ccc2c(c1)[C@]13CCCC[C@@H]1[C@H](C2)N(C)CC3` [dextromethorphan], which “Change of urinary metabolic ratio of dextromethorphan” value (CYP2D6 [4]; after 8-day course of 400 mg HCQ twice daily) is on record?
The value was “did not show any significant change”.
